Data: article PMC3082517 (PLoS Biology, 2011)

How the values were obtained:
[1] = biological target: T1, TrkA (Rattus norvegicus, UniProt P35739); assay: TrkA phosphorylation in HEK293^TrkA transfectants (anti-tyrosine IP, Western blot); type: cell-based; parameters: expressed in transfected cells; host or cells: HEK293; conditions: 10 min (and 20 min), steroids 100 nM, NGF 100 ng/ml
Procedure: HEK293 cells were transfected with the appropriate plasmids (TrkA, p75^NTR, RIP2, TRAF-6, and RhoGDI) by using Lipofectamine 2000 (Invitrogen). Cells were harvested 48 h after transfection and suspended in lysis buffer (50 mM Tris-HCl, 0.15 M NaCl, 1% Triton-X100, pH 7.4) supplemented with protease inhibitors. Lysates were precleared for 1 h with Protein A-Sepharose beads (Amersham) and immunoprecipitated with the appropriate antibody (pTyr, Flag, or c-myc) overnight at 4°C. Protein A Sepharose beads were incubated with the lysates for 4 h at 4°C with gentle shaking. […] Beads were collected by centrifugation, washed four times with lysis buffer, and resuspended in SDS loading buffer. Proteins were separated by SDS/PAGE, followed by immunoblotting with specific antibodies.
PC12 or HEK293 cells lysates were electrophoresed through a 12% SDS-polyacrylamide gel, and then proteins were transferred to nitrocellulose membranes, which were processed according to standard Western blotting procedures, as previously described. To detect protein levels, membranes were incubated with the appropriate antibodies: Bcl-2 (dilution 1∶500), phospho TrkA (dilution 1∶500), total TrkA (dilution1∶500), p75^NTR (dilution 1∶500), phospho Shc (dilution 1∶1000), total Shc (dilution 1∶1000), phospho Akt (dilution 1∶500), total Akt (dilution 1∶500), phospho ERK1/2 (dilution 1∶500), and total ERK1/2 (dilution 1∶500). Proteins were visualized using the ECL Western blotting kit (ECL Amersham Biosciences, UK), and blots were exposed to Kodak X-Omat AR films. A PC-based Image Analysis program was used to quantify the intensity of each band (Image Analysis, Inc., Ontario, Canada).
To normalize for protein content the blots were stripped and stained with GAPDH antibody (dilution 1∶1000); the concentration of each target protein was normalized versus GAPDH. Where phosphorylation of TrkA or kinases was measured, membranes were first probed for the phosphorylated form of the protein, then stripped, and probed for the total protein.

[2] = biological target: T2, p75^NTR (Rattus norvegicus, UniProt P07174); assay: Heterologous [3H]-DHEA displacement, HEK293^p75NTR cell membranes; type: binding; conditions: for displacement of [3H]-DHEA binding (in words): HEK293^p75NTR membranes, competitor up to 1000 nM
T2 construct: expressed in transfected cells; host or cells: HEK293
T2 sequence (P07174 30-425): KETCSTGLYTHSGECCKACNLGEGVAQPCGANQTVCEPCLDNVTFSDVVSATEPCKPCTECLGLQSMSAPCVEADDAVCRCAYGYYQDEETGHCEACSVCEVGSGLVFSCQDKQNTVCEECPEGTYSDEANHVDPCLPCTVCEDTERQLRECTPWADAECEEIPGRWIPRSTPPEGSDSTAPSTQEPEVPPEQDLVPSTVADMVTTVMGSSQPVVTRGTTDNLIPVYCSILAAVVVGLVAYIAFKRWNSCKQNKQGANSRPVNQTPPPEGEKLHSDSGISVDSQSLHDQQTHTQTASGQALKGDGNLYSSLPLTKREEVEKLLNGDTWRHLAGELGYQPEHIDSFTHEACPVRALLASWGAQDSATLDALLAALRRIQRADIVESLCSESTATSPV

[3] = biological target: T1, TrkA; assay: Heterologous [3H]-DHEA displacement, HEK293^TrkA cell membranes; type: binding; parameters: expressed in transfected cells; host or cells: HEK293
[4] = biological target: TrkA receptor; conditions: extracellular and cytoplasmic juxtamembrane domains of TrkA; read-out: Kd of binding to TrkA receptor; cited from earlier work

T1 sequence (P35739 33-799): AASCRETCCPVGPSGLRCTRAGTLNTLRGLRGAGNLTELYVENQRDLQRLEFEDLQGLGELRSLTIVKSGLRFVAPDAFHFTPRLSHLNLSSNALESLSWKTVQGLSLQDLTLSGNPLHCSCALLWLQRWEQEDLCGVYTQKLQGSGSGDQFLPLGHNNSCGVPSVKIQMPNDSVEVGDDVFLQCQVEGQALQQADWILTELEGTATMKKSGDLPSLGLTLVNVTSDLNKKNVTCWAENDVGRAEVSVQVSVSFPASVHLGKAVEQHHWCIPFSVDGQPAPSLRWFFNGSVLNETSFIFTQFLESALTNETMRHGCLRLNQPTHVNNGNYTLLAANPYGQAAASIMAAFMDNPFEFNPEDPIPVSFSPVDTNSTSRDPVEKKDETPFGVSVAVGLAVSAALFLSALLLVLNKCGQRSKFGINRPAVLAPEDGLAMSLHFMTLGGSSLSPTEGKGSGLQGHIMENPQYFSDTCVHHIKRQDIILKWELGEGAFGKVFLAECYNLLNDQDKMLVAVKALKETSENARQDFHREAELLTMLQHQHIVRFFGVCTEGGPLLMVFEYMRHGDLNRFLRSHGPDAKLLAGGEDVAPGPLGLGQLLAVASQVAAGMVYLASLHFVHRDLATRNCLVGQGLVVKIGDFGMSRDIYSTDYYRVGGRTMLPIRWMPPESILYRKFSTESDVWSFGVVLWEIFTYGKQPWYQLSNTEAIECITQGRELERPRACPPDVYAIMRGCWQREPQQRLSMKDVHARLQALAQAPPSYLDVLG

C[C@]12CC[C@H]3[C@@H](CCC4=CC(=O)CC[C@@]43C)[C@@H]1CC[C@@H]2O [testosterone]
phosphorylation of TrkA [1]: unable to increase
IC50 [2]: 7.4 ± 3.2 nM
IC50 [3]: 5.3 ± 2.1 nM

C[C@@H]1C[C@H]2[C@@H]3CCC4=CC(=O)C=C[C@]4(C)[C@@]3(F)[C@@H](O)C[C@]2(C)[C@@]1(O)C(=O)CO [dexamethasone]
displacement of [3H]-DHEA binding (in words) [2]: ineffective

C[C@]12CC[C@@H]3c4ccc(O)cc4CC[C@H]3[C@@H]1CC[C@@H]2O [Estradiol]
displacement of [3H]-DHEA binding (in words) [2]: failed to displace
displacement of [3H]-DHEA binding (in words) ([3]; HEK293^TrkA membranes, competitor 0.1 to 1000 nM): failed to displace

CC(C)=CCC[C@]1(C)C=Cc2c(O)c3c(c(CC=C(C)C)c2O1)O[C@]12C(=C[C@@H]4CC1C(C)(C)O[C@@]2(C/C=C(/C)C(N)=O)C4=O)C3=O [gambogic amide]
Kd [4]: 75 nM
